Drawing on ChEMBL document CHEMBL5131432, “Novel 2,4-disubstituted quinazoline analogs as antibacterial agents with improved cytotoxicity profile: Modification of the benzenoid part” (Bioorg Med Chem Lett, 2022), this text covers MIC and IC50 for 15 compounds.

Converted amounts (≈) assume the structure as drawn.

Series [1] concerns Streptococcus pneumoniae. The series can be described thus: Antibacterial activity against penicillin-resistant Streptococcus pneumoniae DSM-11865 assessed as bacterial growth inhibition. Type of series: functional.
For the next series, the system named is Enterococcus faecalis. The series can be described thus: Antibacterial activity against Enterococcus faecalis DSM-20478 assessed as bacterial growth inhibition. Type of series: functional.
The test system of series [2] is Staphylococcus aureus. The series can be described thus: Antibacterial activity against methicillin-resistant Staphylococcus aureus N315 assessed as bacterial growth inhibition. The series is classed as functional.
For series [3], the system named is Mycolicibacterium smegmatis. The experiment in a line: Antibacterial activity against Mycobacterium smegmatis mc2 155 assessed as bacterial growth inhibition. Type of series: functional.
In series [4] the test system is Escherichia coli. The series can be described thus: Antibacterial activity against wild type Escherichia coli DSM-11116 assessed as bacterial growth inhibition. Type of series: functional.
Series [5] deals with Staphylococcus aureus. The experiment in a line: Antibacterial activity against methicillin-resistant and vancomycin-intermediate Staphylococcus aureus Mu50 assessed as bacterial growth inhibition. Type of series: functional.
Another series deals with Enterococcus faecium. The series can be described thus: Antibacterial activity against Enterococcus faecium DSM-20477 assessed as bacterial growth inhibition. Type of series: functional.
The test system of series [6] is Streptococcus pneumoniae. The experiment in a line: Antibacterial activity against Streptococcus pneumoniae DSM-20566 assessed as bacterial growth inhibition. Type of series: functional.
Series [7] has as its system Staphylococcus aureus. The series can be described thus: Antibacterial activity against methicillin-sensitive Staphylococcus aureus Newman assessed as bacterial growth inhibition. The series is classed as functional.
Series [8] has as its system Escherichia coli. The experiment in a line: Antibacterial activity against Escherichia coli K12 harbouring TolC-deficient mutant assessed as bacterial growth inhibition. Type of series: functional.
Series [9] in a line: Cytotoxicity against human HepG2 cells assessed as inhibition of cell growth. The series is classed as toxicity, cell-based.

As for `CCCCNc1nc(SCCCC)nc2ccc(-c3ccc(C(=O)O)cc3)cc12`, the MIC (with Streptococcus pneumoniae [1]; with Enterococcus faecalis; with Staphylococcus aureus [2]; in series [3]; in the series with Escherichia coli [4]; in the series with Staphylococcus aureus [5]) was > 128 µg/mL each time. Further, the MIC with Enterococcus faecium, in the series on Streptococcus pneumoniae [6], in the series with Staphylococcus aureus [7] and with Escherichia coli [8] was > 128 µg/mL in each case.

`CCCCNc1nc(SCCCC)nc2ccc(-c3cccc(C#N)c3)cc12`: the MIC (in the series with Streptococcus pneumoniae [1]; in the series with Enterococcus faecalis; with Staphylococcus aureus [2]; in series [3]; with Escherichia coli [4]; with Staphylococcus aureus [5]) was > 128 µg/mL in each case. For the same compound, the MIC in the series on Enterococcus faecium, in the series with Streptococcus pneumoniae [6], in the series with Staphylococcus aureus [7] and with Escherichia coli [8] was > 128 µg/mL each time.

On to `CCCCNc1nc(SCCCC)nc2sccc12`, for which the minimum inhibitory concentration (MIC) is 8 µg/mL (≈ 27.1 µM) with Streptococcus pneumoniae [1]; > 128 µg/mL in the series on Enterococcus faecalis; 32 µg/mL (≈ 108 µM) in the series on Staphylococcus aureus [2]; 16 µg/mL (≈ 54.1 µM) in series [3]; > 128 µg/mL in the series on Escherichia coli [4]; > 128 µg/mL with Staphylococcus aureus [5]. Also, the MIC in the series with Enterococcus faecium is > 128 µg/mL; with Streptococcus pneumoniae [6], 8 µg/mL (≈ 27.1 µM); with Staphylococcus aureus [7], 8 µg/mL (≈ 27.1 µM); in the series on Escherichia coli [8] it was 8 µg/mL (≈ 27.1 µM). Also, the IC50 in [9] was > 37 µg/mL.

`CCCCNc1nc(SCCCC)nc2ccc(-c3ccncc3)cc12`: the minimum inhibitory concentration (MIC) (in the series on Streptococcus pneumoniae [1]; in the series with Enterococcus faecalis; in the series with Staphylococcus aureus [2]; in [3]; in the series with Escherichia coli [4]; in the series with Staphylococcus aureus [5]) was > 128 µg/mL in each case. The minimum inhibitory concentration (MIC) in the series on Enterococcus faecium, in the series with Streptococcus pneumoniae [6], in the series with Staphylococcus aureus [7] and in the series with Escherichia coli [8] was > 128 µg/mL each time.

For `CCCCNc1nc(SCCCC)nc2ccc(NC(=O)NCC)cc12`, the MIC (in the series with Streptococcus pneumoniae [1]; with Enterococcus faecalis; in the series with Staphylococcus aureus [2]; in series [3]; in the series on Escherichia coli [4]; in the series on Staphylococcus aureus [5]) was > 128 µg/mL throughout. Besides, the MIC with Enterococcus faecium, in the series on Streptococcus pneumoniae [6], with Staphylococcus aureus [7] and in the series with Escherichia coli [8] was > 128 µg/mL throughout.

Turning to `CCCCNc1nc(SCCCC)nc2ccc(-c3cccc(C(=O)O)c3)cc12`, the MIC with Streptococcus pneumoniae [1] is 16 µg/mL (≈ 39.1 µM); in the series with Enterococcus faecalis, 8 µg/mL (≈ 19.5 µM); in the series on Staphylococcus aureus [2] it was 8 µg/mL (≈ 19.5 µM); in series [3], > 128 µg/mL; with Escherichia coli [4], > 128 µg/mL; in the series with Staphylococcus aureus [5], 8 µg/mL (≈ 19.5 µM). Also, the MIC is 8 µg/mL (≈ 19.5 µM) in the series with Enterococcus faecium, 4 µg/mL (≈ 9.77 µM) in the series on Streptococcus pneumoniae [6], 8 µg/mL (≈ 19.5 µM) in the series on Staphylococcus aureus [7] and > 128 µg/mL in the series on Escherichia coli [8]. The IC50 in series [9] is > 37 µg/mL.

Regarding `CCCCNc1nc(SCCCC)nc2cc(-c3cccnc3)ccc12`, the MIC (with Streptococcus pneumoniae [1]; in the series on Enterococcus faecalis; in the series on Staphylococcus aureus [2]; in series [3]; in the series with Escherichia coli [4]; in the series on Staphylococcus aureus [5]) was > 128 µg/mL in each case. Also, the minimal inhibitory concentration (MIC) with Enterococcus faecium, with Streptococcus pneumoniae [6], with Staphylococcus aureus [7] and with Escherichia coli [8] was > 128 µg/mL each time.

As for `CCCCNc1nc(SCCCC)nc2ccc(-c3cccc(CO)c3)cc12`, the MIC (in the series with Streptococcus pneumoniae [1]; in the series on Enterococcus faecalis; with Staphylococcus aureus [2]; in series [3]; in the series on Escherichia coli [4]; in the series on Staphylococcus aureus [5]) was > 128 µg/mL each time. Also, the MIC with Enterococcus faecium, in the series with Streptococcus pneumoniae [6], with Staphylococcus aureus [7] and in the series with Escherichia coli [8] was > 128 µg/mL each time.

Turning to `CCCCSc1nc(SCCCC)c2cc(N)ccc2n1`, the minimal inhibitory concentration (MIC) was 8 µg/mL (≈ 24.9 µM) in the series with Streptococcus pneumoniae [1]; 32 µg/mL (≈ 99.5 µM) in the series on Enterococcus faecalis; 4 µg/mL (≈ 12.4 µM) with Staphylococcus aureus [2]; 32 µg/mL (≈ 99.5 µM) in [3]; > 128 µg/mL in the series with Escherichia coli [4]; 4 µg/mL (≈ 12.4 µM) in the series on Staphylococcus aureus [5]. The MIC in the series on Enterococcus faecium was 8 µg/mL (≈ 24.9 µM); in the series on Streptococcus pneumoniae [6], 4 µg/mL (≈ 12.4 µM); in the series with Staphylococcus aureus [7], 8 µg/mL (≈ 24.9 µM); with Escherichia coli [8], > 128 µg/mL. Moreover, in [9], the IC50 was > 37 µg/mL.

Regarding `CCCCNc1nc(SCCCC)nc2ccc(-c3cccc(OC)c3)cc12`, the minimal inhibitory concentration (MIC) (with Streptococcus pneumoniae [1]; in the series on Enterococcus faecalis; in the series with Staphylococcus aureus [2]; in series [3]; in the series on Escherichia coli [4]; with Staphylococcus aureus [5]) was > 128 µg/mL in each case. Also, the MIC in the series with Enterococcus faecium, in the series with Streptococcus pneumoniae [6], with Staphylococcus aureus [7] and in the series on Escherichia coli [8] was > 128 µg/mL in each case.

As to `CCCCSc1nc(SCCCC)c2cc(NS(=O)(=O)CC)ccc2n1`, the MIC in the series with Streptococcus pneumoniae [1] was 3 µg/mL (≈ 7.25 µM); in the series with Enterococcus faecalis, 8 µg/mL (≈ 19.3 µM); in the series on Staphylococcus aureus [2], > 128 µg/mL; in series [3], > 128 µg/mL; with Escherichia coli [4] it was > 128 µg/mL; with Staphylococcus aureus [5], > 128 µg/mL. The MIC in the series with Enterococcus faecium was 8 µg/mL (≈ 19.3 µM); with Streptococcus pneumoniae [6], 4 µg/mL (≈ 9.67 µM); with Staphylococcus aureus [7], > 128 µg/mL; in the series with Escherichia coli [8], > 128 µg/mL. Also, the IC50 in [9] was > 37 µg/mL.

`CCCCNc1nc(SCCCC)nc2cc(-c3ccccc3)ccc12`: the minimum inhibitory concentration (MIC) (with Streptococcus pneumoniae [1]; in the series with Enterococcus faecalis; in the series on Staphylococcus aureus [2]; in series [3]; in the series on Escherichia coli [4]; in the series with Staphylococcus aureus [5]) was > 128 µg/mL throughout. Moreover, the MIC in the series on Enterococcus faecium, with Streptococcus pneumoniae [6], with Staphylococcus aureus [7] and in the series with Escherichia coli [8] was > 128 µg/mL in each case.

As to `CCCCNc1nc(SCCCC)nc2nn(CCCC)cc12`, the MIC (in the series on Streptococcus pneumoniae [1]; in the series with Enterococcus faecalis; in the series with Staphylococcus aureus [2]; in series [3]; in the series with Escherichia coli [4]; in the series on Staphylococcus aureus [5]) was > 128 µg/mL throughout. Besides, the MIC in the series with Enterococcus faecium, in the series with Streptococcus pneumoniae [6], in the series with Staphylococcus aureus [7] and in the series with Escherichia coli [8] was > 128 µg/mL throughout.

Turning to `CCCCNc1nc(SCCCC)nc2ccc(-c3cccnc3)cc12`, the MIC (with Streptococcus pneumoniae [1]; in the series on Enterococcus faecalis; in the series with Staphylococcus aureus [2]; in [3]; with Escherichia coli [4]; in the series with Staphylococcus aureus [5]) was > 128 µg/mL throughout. Further, the MIC in the series with Enterococcus faecium, in the series with Streptococcus pneumoniae [6], in the series on Staphylococcus aureus [7] and in the series on Escherichia coli [8] was > 128 µg/mL in each case.

Take `CCCCNc1nc(SCCCC)nc2ccc(-c3cn[nH]c3)cc12`: the MIC (in the series with Streptococcus pneumoniae [1]; in the series on Enterococcus faecalis; in the series on Staphylococcus aureus [2]; in [3]; with Escherichia coli [4]; in the series with Staphylococcus aureus [5]) was > 128 µg/mL throughout. Also, the MIC in the series on Enterococcus faecium, in the series with Streptococcus pneumoniae [6], with Staphylococcus aureus [7] and in the series with Escherichia coli [8] was > 128 µg/mL in each case.

As a reminder, the MIC is the least concentration at which growth counts as inhibited. A word on the IC50: it is the concentration that inhibits the measured activity by half.
